From US20250304576A1 (Cancer Research Technology Limited, priority 2022, published 2025)

Assays:
Recombinant IKKα = target: T1, Recombinant IKKα (Homo sapiens, UniProt O15111); assay: DELFIA IKKα kinase assay (apparent Ki, Cheng-Prusoff); format: biochemical
T1 construct: purchased Millipore, Dundee, UK
T1 sequence (O15111 1-745): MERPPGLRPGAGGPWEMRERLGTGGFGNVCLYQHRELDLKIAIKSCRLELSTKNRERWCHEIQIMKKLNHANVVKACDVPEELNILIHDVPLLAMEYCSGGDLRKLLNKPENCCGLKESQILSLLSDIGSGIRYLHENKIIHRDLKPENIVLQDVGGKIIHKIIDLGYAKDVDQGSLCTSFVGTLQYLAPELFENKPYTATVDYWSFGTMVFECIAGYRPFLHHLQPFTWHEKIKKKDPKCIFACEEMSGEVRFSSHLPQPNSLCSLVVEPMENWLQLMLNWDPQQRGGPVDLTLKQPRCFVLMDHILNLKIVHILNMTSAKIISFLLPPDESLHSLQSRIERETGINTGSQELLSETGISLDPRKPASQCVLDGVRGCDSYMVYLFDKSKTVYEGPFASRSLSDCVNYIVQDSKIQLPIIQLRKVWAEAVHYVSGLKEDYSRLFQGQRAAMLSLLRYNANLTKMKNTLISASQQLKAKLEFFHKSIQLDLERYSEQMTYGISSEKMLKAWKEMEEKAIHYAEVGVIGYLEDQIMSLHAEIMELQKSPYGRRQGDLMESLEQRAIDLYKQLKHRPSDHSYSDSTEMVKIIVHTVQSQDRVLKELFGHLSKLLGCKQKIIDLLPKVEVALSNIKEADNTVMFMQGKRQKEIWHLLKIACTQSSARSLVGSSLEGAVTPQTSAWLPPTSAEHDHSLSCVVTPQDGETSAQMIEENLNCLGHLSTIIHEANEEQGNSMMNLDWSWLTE
Method: (§1) IKKα and IKKβ inhibitory activity was determined using three different assays: a dissociation enhanced ligand fluorescent immunoassay (DELFIA) based on the protocol of HTScan™ IKKβ Kinase Assay (Cell Signaling Technology, USA); an Adapta IKKα assay (performed by Life Technologies); a Z′-LYTE™ IKKβ assay (performed by Life Technologies).
(§2) Recombinant IKKα or IKKβ, 37 nM, (Millipore, Dundee, UK) was incubated with IηB-α (Ser32) (New England Biolabs, Hitchin, UK) biotinylated peptide substrate (0.375 μM) and 40 μM ATP in assay buffer (40 mM Tris-HCl (pH 7.5), 20 mM MgCl2, EDTA 1 mM, DTT 2 mM and BSA 0.01 mg/ml) in a V-well 96-well plate in the presence and absence of test compound. The assay plate was incubated for 60 minutes at 30° C. after which the kinase reaction was quenched by the addition of 50 mM EDTA, pH8. The resulting mixture was transferred to a streptavidin coated 96-well plate (Perkin Elmer, Beaconsfield, UK) and incubated for 1 hour at 30° C. to immobilise the substrate peptide. After three washes with wash buffer (0.01 M phosphate buffered saline (PBS), 0.05% Tween −20, pH 7.4) a primary antibody against the phosphorylated substrate (phospho-IηB-a) (Ser32/36) (5A5) Mouse mAb (New England Biolabs, Hitchin, UK) (1:1000 dilution with 1% bovine serum albumin (BSA) in wash buffer) was added and incubated at 37° C. for 2 h.
(§3) After a further three washes, a secondary europiated antibody (Eu-N1 labelled anti-mouse IgG, (Perkin Elmer, Beaconsfield, UK) diluted 1:500 in 1% BSA/wash buffer) was added and incubated at 30° C. for 30 minutes. After a further five washes, DELFIA enhancement solution—(Perkin Elmer, Beaconsfield UK) was added and allowed to incubate for 10 min at room temperature, protected from light, to facilitate the chemifluorescent detection. The relative fluorescence units (RFU) signal were measured on a Wallac Victor 1420 multilabel counter (Perkin Elmer, Beaconsfield, UK), in time-resolved fluorescence mode. The counter was set at an excitation wavelength of 340 nm with a 400 μs delay before detecting emitted light at 615 nm. The apparent Ki of the […] was calculated for each compound using the Cheng-Prusoff Equation.
(§4) The IKKα and IKKβ figures quoted in non-italicised form are from the DELFIA assay described above.

Recombinant IKKβ = target: T2, Recombinant IKKβ (Homo sapiens, UniProt O14920); assay: DELFIA IKKβ kinase assay (apparent Ki, Cheng-Prusoff); format: biochemical
T2 construct: purchased Millipore, Dundee, UK
T2 sequence (O14920 1-756): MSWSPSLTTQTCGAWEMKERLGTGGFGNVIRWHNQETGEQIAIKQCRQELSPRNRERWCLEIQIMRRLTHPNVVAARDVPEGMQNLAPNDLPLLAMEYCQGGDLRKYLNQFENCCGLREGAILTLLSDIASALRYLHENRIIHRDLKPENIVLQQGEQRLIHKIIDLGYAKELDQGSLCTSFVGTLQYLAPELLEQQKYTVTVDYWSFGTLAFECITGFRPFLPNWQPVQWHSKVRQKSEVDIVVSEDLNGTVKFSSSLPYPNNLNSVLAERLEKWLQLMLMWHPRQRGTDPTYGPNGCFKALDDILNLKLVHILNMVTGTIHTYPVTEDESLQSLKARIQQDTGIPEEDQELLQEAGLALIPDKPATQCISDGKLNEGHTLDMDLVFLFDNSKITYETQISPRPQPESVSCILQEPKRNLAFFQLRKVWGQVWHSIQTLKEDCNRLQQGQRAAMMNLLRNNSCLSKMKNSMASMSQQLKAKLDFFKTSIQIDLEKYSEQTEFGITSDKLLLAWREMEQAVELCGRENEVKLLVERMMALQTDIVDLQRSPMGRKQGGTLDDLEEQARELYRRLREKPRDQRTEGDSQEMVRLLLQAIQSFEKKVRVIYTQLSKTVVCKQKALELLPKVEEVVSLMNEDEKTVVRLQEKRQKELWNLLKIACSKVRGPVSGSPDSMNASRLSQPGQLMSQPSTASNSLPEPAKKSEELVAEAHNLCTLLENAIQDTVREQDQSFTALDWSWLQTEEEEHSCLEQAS
Method: as §1, §2, §3, §4

[1] = non-italicised figure: DELFIA assay
[2] = DELFIA assay (first line of an example)

| SMILES | Ki (Recombinant IKKα; [1]) [nM] | Ki (Recombinant IKKβ; [1]) [nM] | Ki (Recombinant IKKα; [2]) [nM] | Ki (Recombinant IKKβ; [2]) [nM] |
| --- | --- | --- | --- | --- |
| CCc1ccccc1NC(=O)Nc1cc(-c2ccc3[nH]nc(N)c3c2)ccn1 [Example 67, 1-(4-(3-Amino-1H-indazol-5-yl)pyridin-2-yl)-3-(2-ethylphenyl)urea] | 300 | 4200 |  |  |
| Nc1n[nH]c2ccc(-c3ccnc4[nH]c(CC5CCN(Cc6ccccc6)CC5)cc34)cc12 [Example 273, 5-(2-((1-benzylpiperidin-4-yl)methyl)-1H-pyrrolo[2,3-b]pyridin-4-yl)-1H-indazol-3-amine] |  |  | 5 | 200 |
| CC(C)CCNC(=O)c1cc2c(-c3ccc4[nH]nc(N)c4c3)ccnc2[nH]1 [Example 237, 4-(3-amino-1H-indazol-5-yl)-N-isopentyl-1H-pyrrolo[2,3-b]pyridine-2-carboxamide] |  |  | 3 | 130 |
| CC(C)OCCCNCc1cc2c(-c3ccc4[nH]nc(N)c4c3)ccnc2[nH]1 [Example 257, 5-(2-(((3-Isopropoxypropyl)amino)methyl)-1H-pyrrolo[2,3-b]346yridine-4-yl)-1H-indazol-3-amine] |  |  | 40 | 2220 |
| Nc1n[nH]c2c(Cl)cc(-c3ccnc4[nH]c(C(=O)NCCN5CCCCC5)cc34)cc12 [Example 274, 4-(3-Amino-7-chloro-1H-indazol-5-yl)-N-(2-(piperidin-1-yl)ethyl)-1H-pyrrolo[2,3-b]pyridine-2-carboxamide] |  |  | 8 | 126 |
| Nc1nccc(-c2ccc3[nH]nc(N)c3c2)c1C#CCC1CCNCC1 [Example 97, 5-(2-Amino-3-(3-(piperidin-4-yl)prop-1-yn-1-yl)pyridin-4-yl)-1H-indazol-3-amine] | 15 | 105 |  |  |
| Nc1n[nH]c2c(-c3ccc(O)cc3)cc(-c3ccnc(NC4COC4)c3)cc12 [Example 324, 4-(3-Amino-5-(2-(oxetan-3-ylamino)pyridin-4-yl)-1H-indazol-7-yl)phenol] |  |  | 8090 | 4730 |
| COCCCNCc1cc2c(-c3ccc4[nH]nc(N)c4c3)ccnc2[nH]1 [Example 256, 5-(2-(((3-methoxypropyl)amino)methyl)-1H-pyrrolo[2,3-b]pyridine-4-yl)-1H-indazol-3-amine] |  |  | 46 | 2560 |
| Nc1cc(-c2cc(-c3ccc(S(N)(=O)=O)cc3)c3[nH]nc(N)c3c2)ccn1 [Example 121, 4-(3-Amino-5-(2-aminopyridin-4-yl)-1H-indazol-7-yl)benzenesulfonamide] | 27 | 1480 |  |  |
| Nc1cc(-c2cc(C(F)(F)F)c3[nH]nc(N)c3c2)ccn1 [Example 3, 5-(2-Aminopyridin-4-yl)-7-(trifluoromethyl)-1H-indazol-3-amine] | 38 | 194 |  |  |
| Nc1cccc(C#Cc2c(-c3ccc4[nH]nc(N)c4c3)ccnc2N)c1 [Example 77, 5-(2-Amino-3-((3-aminophenyl)ethynyl)pyridine-4-yl)-1H-indazol-3-amine] | 4 | 22 |  |  |
| CC(C)(C)N1CCN(Cc2cc3c(-c4ccc5[nH]nc(N)c5c4)ccnc3[nH]2)CC1 [Example 264, 5-(2-((4-(tert-Butyl)piperazin-1-yl)methyl)-1H-pyrrolo[2,3-b]pyridin-4-yl)-1H-indazol-3-amine] |  |  | 5 | 285 |
| NCCNC(=O)c1cc2c(-c3ccc4[nH]nc(N)c4c3)ccnc2[nH]1 [Example 241, 4-(3-Amino-1H-indazol-5-yl)-N-(2-aminoethyl)-1H-pyrrolo[2,3-b]pyridine-2-carboxamide] |  |  | 4 | 122 |

Results, then the compound that gave them:

| Ki (Recombinant IKKα; [1]) [nM] | Ki (Recombinant IKKβ; [1]) [nM] | Ki (Recombinant IKKα; [2]) [nM] | Ki (Recombinant IKKβ; [2]) [nM] | SMILES |
| --- | --- | --- | --- | --- |
| 89 | 3330 |  |  | CC(C)(C)C#Cc1cc(-c2ccnc(NC(=O)C3CCC3)c2)cc2c(N)n[nH]c12 [Example 172, N-(4-(3-Amino-7-(3,3-dimethylbut-1-yn-1-yl)-1H-indazol-5-yl)pyridin-2-yl)cyclobutanecarboxamide] |
| 8 | 220 |  |  | CC(C)(C)C#Cc1cc(-c2ccnc(N)c2F)cc2c(N)n[nH]c12 [Example 149, 5-(2-Amino-3-fluoropyridin-4-yl)-7-(3,3-dimethylbut-1-yn-1-yl)-1H-indazol-3-amine] |
| 160 | 1500 |  |  | CC(C)(C)c1ccc(-c2cc(-c3ccnc(N)c3)cc3c(N)n[nH]c23)cc1 [Example 123, 5-(2-Aminopyridin-4-yl)-7-(4-(tert-butyl)phenyl)-1H-indazol-3-amine] |
| 47 | 721 |  |  | COC(=O)Nc1cc(-c2cc(C#CCN3CCOCC3)c3[nH]nc(N)c3c2)ccn1 [Example 183, Methyl (4-(3-amino-7-(3-morpholinoprop-1-yn-1-yl)-1H-indazol-5-yl)pyridin-2-yl)carbamate] |
| 418 | > 10000 |  |  | CN(CCO)C(=O)Nc1cc(-c2ccc3[nH]nc(N)c3c2)ccn1 [Example 44, 3-(4-(3-Amino-1H-indazol-5-yl)pyridin-2-yl)-1-(2-hydroxyethyl)-1-methylurea] |
| 76 | 2900 |  |  | CC(C)(C)c1ccc(NC(=O)Nc2cc(-c3ccc4[nH]nc(N)c4c3)ccn2)cc1 [Example 64, 1-(4-(3-Amino-1H-indazol-5-yl)pyridin-2-yl)-3-(4-(tert-butyl)phenyl)urea] |
|  |  | 366 | 3100 | Nc1n[nH]c2c(C#CCO)cc(-c3ccnc4[nH]ccc34)cc12 [Example 205, 3-(3-Amino-5-(1H-pyrrolo[2,3-b]pyridin-4-yl)-1H-indazol-7-yl)prop-2-yn-1-ol] |
|  |  | 449 | 1080 | CC(C)(C)C#Cc1cc(-c2ccnc3[nH]c(C(C)(C)C)cc23)cc2c(N)n[nH]c12 [Example 296, 5-(2-(tert-Butyl)-1H-pyrrolo[2,3-b]pyridin-4-yl)-7-(3,3-dimethylbut-1-yn-1-yl)-1H-indazol-3-amine] |
|  |  | 911 | ≥ 10000 | CC(C)(C)C#Cc1cc(-c2ccnc(Nc3nccs3)c2)cc2c(N)n[nH]c12 [Example 314, N-(4-(3-Amino-7-(3,3-dimethylbut-1-yn-1-yl)-1H-indazol-5-yl)pyridin-2-yl)thiazol-2-amine] |
| 70 | 4100 |  |  | CCCNC(=O)Nc1cc(-c2ccc3[nH]nc(N)c3c2)ccn1 [Example 37, 1-(4-(3-Amino-1H-indazol-5-yl)pyridin-2-yl)-3-propylurea] |
